US5968933A, “DNA-targeted alkylating agents” (Auckland Division Cancer Society of New Zealand Inc., priority 1994, dated 1999)
Where two headings read alike, the source gives them in different places.

What was measured:
[1] = test system: Saccharomyces cerevisiae strain D5
[2] = test system: linearized pSV2gpt DNA; assay: DNA crosslinking assay (agarose gel electrophoresis of linearized plasmid); assay type: biochemical; details: 2 h at 30° C., TE-80 buffer pH 8
Procedure: The ability of representative compounds of the invention to bind to and cross-link DNA was examined. This was carried out by agarose gel electrophoresis of plasmid DNA using linearized pSV2gpt DNA (Tindall, K. R. and Stankowski, L. F.; Mutation Research, 1989 220 241-245) and the method reported by Valu et al, 1990, op.cit. Briefly, linearized pSV2gpt DNA (1 μL of a 1 mg/mL solution) was incubated with drug in TE-80 buffer (10 mM Tris.HCl, 1 mM EDTA at pH 8), shielded from ambient light, for 2 h at 30° C., then denatured by the addition of […] of 1% sodium dodecyl sulfate and 10 μL of 50 mM methylmercury hydroxide and incubated for a further 30 min at 20° C. in the dark. Renaturation of drug-treated DNA samples was carried out by incubation with 2.5 μL of 2-mercaptoethanol for 1 h. Samples were prepared for electrophoresis by the addition of 0.1 mg/mL bromophenol blue, 0.5 μg/mL ethidium bromide and 5 μL of 40% sucrose. Electrophoresis was carried out at 120V in 89 mM tris/borate buffer at pH 8 containing 2 mM EDTA and 0.5 μg/mL ethidium bromide. DNA was visualized using 302 nm trans-illumination, and was photographed using Polaroid type 55 film and a Wratten 3A filter.
After drug treatment, DNA is denatured to the single stranded form, which runs as a lower band in the gels (see lanes 1 and 2 in FIG. 1). Cross-linking by the drugs is evidenced by the appearance of increasing amounts of renatured, double stranded DNA, as shown by the upper band in the gels, corresponding to the band for untreated DNA seen in lane 1.

[3] = test system: S. typhimurium TA102; assay: Bacterial mutagenicity, plate incorporation assay, TA102; details: mean ± SD
[4] = test system: S. typhimurium TA100; assay: Bacterial mutagenicity, plate incorporation assay, TA100; details: for reversion colonies, TA100: mean ± SD
[5] = test system: S. typhimurium strains; details: overall
[6] = test system: AA8 cells; assay: Growth inhibition in vitro, AA8; assay type: cell-based, Chinese hamster
Procedure: (§1) Representative examples of compounds of the invention were tested for biological activity against tumors. Compounds 1 to 6 and 14 to 21, prepared as described above, were tested for their ability to inhibit growth in vitro of cells of the wild-type murine leukaemia cell line P388, and the cell line AA8 which is derived from Chinese hamster ovary cells. For each compound, the IC50, ie. the concentration of compound which inhibited cell growth in treated cultures to 50% of that of controls, was determined, using means of three determinations. In addition, a hypersensitivity factor was determined by comparing activity of the compounds against AA8 cells to activity against UV4. The latter cell line is deficient in aspects of the excision repair pathway for removing DNA adducts, and is hypersensitive to DNA-alkylating agents, especially interstrand crosslinking agents. Previous work has shown that the ratio of IC50 s determined in the wild-type AA8 and mutant UV4 lines (the hypersensitivity factor HF) is a determinant of the mode of cell killing by alkylating agents (Palmer, B. D. et al, J. Med. Chem., 1990 33 112-121; Wilson, W. R. et al, J. Med. Chem., 1989 32 31-38). Compounds with HFs of ca. 1 are unlikely to kill cells via DNA alkylation events. Compounds which show high HF values are likely to form bulky adducts or cross-links,with the latter being especially likely for compounds showing the highest HF values (>ca. 25) (Wilson et al, op. cit.).
(§2) Cell lines were maintained in exponential growth phase by subculturing in RPMI 1640 (P338) or Alpha MEM (AA8, UV4) containing 10% fetal calf serum, as previously described (Palmer et al, op.cit.; Baguley, B. C. and Wilson, W. R., Eur. J. Cancer Clin. Oncol., 1987 23 607-613). IC50 values were determined using log-phase cultures in 96-well microculture plates, and were calculated as the nominal drug concentration required to reduce the cell density to 50% of control values, using 8 control cultures on each microplate. For P388 cultures, drug was present throughout the growth period (72 h), and final cell densities were determined using a minor modification of the MTT method of Mossman (Mossman, T., J. Immunol. Methods, 1983 65 55-63). For AA8 and UV4 cultures, drug exposure was terminated after 18 h by washing three times with fresh medium. Cultures were then grown for a further 72 h before determining cell density by staining with methylene blue (Finlay, G. J. et al, Anal. Biochem., 1984 139 272-277).

[7] = test system: calf thymus DNA; assay: Rate of alkylation of calf thymus DNA by increase in DNA-bound fluorescence; assay type: biochemical; design: unit not given here
[8] = test system: calf thymus DNA; assay: Reversible DNA binding by spectrophotometric Scatchard analysis; details: 20° C., 0.01M HEPES buffer, pH 7.00
[9] = test system: P388 cells; assay: Growth inhibition in vitro, P388 leukaemia; assay type: cell-based, murine; details: P388 cells, 72 h, MTT, read-out: IC50
Procedure: as §1, §2

[10] = test system: S. typhimurium TA98; assay: Bacterial mutagenicity, plate incorporation assay, TA98; details: mean ± SD
[11] = test system: AA8 and UV4 cells; assay: Hypersensitivity factor (AA8/UV4 IC50 ratio); assay type: cell-based, Chinese hamster; details: ratio of IC50s AA8/UV4
Procedure: as §1, §2

[12] = test system: P338 murine leukaemia; assay type: in vivo, mice
[13] = test system: solid tumour lines; details: other studies; cited from earlier work
[14] = test system: L1210 leukemia; details: repeated dose schedule; cited from earlier work
[15] = test system: DNA minor groove; details: background; cited from earlier work
[16] = 40 μg/plate, square brackets: toxicity becoming apparent
[17] = 80 μg/plate, square brackets: toxicity becoming apparent
[18] = 120 μg/plate, square brackets: toxicity becoming apparent

SMILES	reversion colonies, TA102 ([3]; 4 μg/plate)	reversion colonies, TA102 ([3]; 10 μg/plate)	reversion colonies, TA102 ([3]; 20 μg/plate)	reversion colonies, TA102 [3, 16]	reversion colonies, TA102 [3, 17]	reversion colonies, TA100 ([4]; 4 μg/plate)	reversion colonies, TA100 ([4]; 10 μg/plate)	reversion colonies, TA100 ([4]; 20 μg/plate)	reversion colonies, TA100 ([4]; 40 μg/plate)	reversion colonies, TA100 ([4]; 80 μg/plate)	Site size (Number of nucleotide residues) [8]	reversion colonies, TA98 ([10]; 4 μg/plate)	reversion colonies, TA98 ([10]; 10 μg/plate)	reversion colonies, TA98 ([10]; 20 μg/plate)	reversion colonies, TA98 ([10]; 40 μg/plate)	reversion colonies, TA98 [10, 17]	Hypersensitivity factor [11]	other results
CN1CCN(c2ccc3nc(-c4ccc5nc(CCCCCCc6ccc(N(CCCl)CCCl)cc6)[nH]c5c4)[nH]c3c2)CC1 [Compound 6, 2-[2-[6-[4-(N,N-bis(2-chloroethyl)amino)phenyl]hexyl]-5-benzimidazolyl]-5-(1-methyl-4-piperazinyl)benzimidazole]	271 ± 31	386 ± 10	342 ± 14	372 ± 19	336 ± 19	160 ± 13	136 ± 0	156 ± 29	144 ± 10	142 ± 10	2.4 nucleotide residues	65 ± 10	69 ± 7	68 ± 8	69 ± 9	96 ± 5	20	petite (mitochondrial) mutagenesis ([1]; yeast strain D5, in words): showed activity, albeit weak; Cross-linking [2]: Yes and crosslinked DNA; reversion colonies, TA102 [3, 18]: 353 ± 34; reversion colonies, TA100 [4, 18]: 157 ± 14; bacterial mutagenicity [5]: lower bacterial mutagenicity; IC50 ([6]; AA8 cells, 18 h exposure, then 72 h growth, methylene blue, read-out: IC50): 400 nM; Rate constant for alkylation [7]: 9.64 × 10^4; IC50 [9]: 60 nM; reversion colonies, TA98 [10, 18]: 75 ± 3; Optimal dose ([12]; single i.p. dose): 8.9 mg/kg; % Increase in lifespan ([12]; single i.p. dose 24 h after tumour inoculation, at optimal dose (mg/kg: 1 30; 2 30; 3 13.3; 4 3.9; 5 5.9; 6 8.9)): 23%
CN1CCN(c2ccc3nc(-c4ccc5nc(-c6ccc(O)cc6)[nH]c5c4)[nH]c3c2)CC1 [Pibenzimol, reference compound]	275 ± 12	277 ± 1	301 ± 3	377 ± 49	397 ± 10	188 ± 11	191 ± 7	179 ± 6	168 ± 13	178 ± 11	2.4 nucleotide residues	59 ± 3	64 ± 8	55 ± 6	61 ± 5	62 ± 9	about unity	petite (mitochondrial) mutagenesis [1]: not active in this system; mutagenicity in TA100 ([4]; statistical analysis): no statistically significant mutagenic response in TA100; cytotoxicity in solid tumour lines [13]: very low cytotoxicity; activity against the AA8 cell line ([6]; compared with P388, shorter exposure time): much less active; IC50 ([9]; Mus musculus): ~1000 nM; in vivo activity against L1210 leukemia [14]: moderate in vivo activity; binding to DNA minor groove [15]: binds to regions of the minor groove rich in adenine and thymine bases; in vivo antitumour activity ([12]; P388, single-dose protocol): not active against P388 using the single-dose protocol
